Source: ChEMBL document CHEMBL4420060, “Combinatorial therapies for the treatment of neoplasias using the opioid growth factor receptor” (2013)
Calls of active or inactive are those of the source. The rule behind the calls is not given here.

Columns and labels:
[1] = test system: UMSCC1; test: Growth inhibition of human UM-SCC-1 cells assessed as decrease in cell number at 1 uM by MTS assay relative to control; format: functional, cell-based
[2] = test system: MIA PaCa-2; test: Growth inhibition of human MIAPaCa2 cells assessed as decrease in cell number at 1 uM incubated for 96 hrs by MTS assay relative to control; format: functional
[3] = test system: MIA PaCa-2; test: Growth inhibition of human MIAPaCa2 cells assessed as decrease in cell number at 10 uM incubated for 72 hrs in presence of 1 uM OGF by MTS assay relative to control; format: functional
[4] = test system: MIA PaCa-2; test: Growth inhibition of human MIAPaCa2 cells assessed as decrease in cell number at 1 uM incubated for 24 to 96 hrs in presence of 1 uM OGF by MTS assay relative to control; format: functional; design: scale not given: the % may be the effect or the level left
[5] = test system: MIA PaCa-2; test: Growth inhibition of human MIAPaCa2 cells assessed as decrease in cell number at 1 uM incubated for 24 hrs in presence of 1 uM OGF by MTS assay relative to control; format: functional; details: MIA PaCa-2, 24 h, read-out: GI
[6] = test system: MIA PaCa-2; test: Growth inhibition of human MIAPaCa2 cells assessed as decrease in cell number at 10 uM incubated for 96 hrs in presence of 1 uM OGF by MTS assay relative to control; format: functional
[7] = test system: MIA PaCa-2; test: Growth inhibition of human MIAPaCa2 cells assessed as decrease in cell number at 1 uM incubated for 48 hrs in presence of 1 uM OGF by MTS assay relative to control; format: functional; details: MIA PaCa-2, 48 h, read-out: GI
[8] = test system: MIA PaCa-2; test: Growth inhibition of human MIAPaCa2 cells assessed as decrease in cell number at 10 uM incubated for 24 hrs in presence of 1 uM OGF by MTS assay relative to control; format: functional
[9] = test system: MIA PaCa-2; test: Growth inhibition of human MIAPaCa2 cells assessed as decrease in cell number at 10 uM incubated for 48 hrs in presence of 1 uM OGF by MTS assay relative to control; format: functional
[10] = test system: MIA PaCa-2; test: Growth inhibition of human MIAPaCa2 cells assessed as decrease in cell number at 1 uM incubated for 48 to 96 hrs by MTS assay relative to control; format: functional; design: scale not given: the % may be the effect or the level left
[11] = test system: MIA PaCa-2; test: Growth inhibition of human MIAPaCa2 cells assessed as decrease in cell number at 1 uM incubated for 72 hrs in presence of 1 uM OGF by MTS assay relative to control; format: functional; details: MIA PaCa-2, 72 h, read-out: GI
[12] = test system: UMSCC1; test: Induction of apoptosis in human UM-SCC-1 cells assessed as increase in caspse-3 levels at 0.01 uM in presence of 1 uM OGF incubated for 6 days by flow cytometry; format: functional
[13] = test system: UMSCC1; test: Antitumor activity against human UM-SCC-1 cells xenografted in nu/nu mouse assessed as reduction in tumor measured on 6th day of measurable tumors at 8 mg/kg dosed every other day relative to control; format: functional; design: scale not given: the % may be the effect or the level left
[14] = Toxicity in mouse xenografted with human UM-SCC-1 cells assessed as distension of abdomens with associated megacolon at 8 mg/kg dosed every other day by histological analysis; format: organism-based; details: in vivo
[15] = test system: CAL-27; test: Growth inhibition of human CAL27 cells assessed as decrease in cell number at 0.0001 uM with drug and media changed daily in presence of 1 uM OGF incubated for 48 hrs by MTS assay relative to control; format: functional
[16] = test system: UMSCC1; test: Growth inhibition of human UM-SCC-1 cells assessed as decrease in cell number at 0.1 uM incubated for 72 hrs in presence of 1 uM OGF by MTT assay relative to control; format: functional
[17] = test system: UMSCC1; test: Growth inhibition of human UM-SCC-1 cells assessed as decrease in cell number at 0.01 uM in presence of 1 uM OGF incubated for 48 hrs followed by compound wash out by 50% replacement of media and measured after 48 hrs by MTS assay relative to control; format: functional, cell-based
[18] = test system: UMSCC1; test: Growth inhibition of human UM-SCC-1 cells assessed as decrease in cell number at 0.01 uM in presence of 1 uM OGF incubated for 48 hrs by MTS assay relative to control; format: functional
[19] = test system: UMSCC1; test: Growth inhibition of human UM-SCC-1 cells assessed as decrease in cell number at 0.1 uM incubated for 96 hrs in presence of 1 uM OGF by MTT assay relative to control; format: functional
[20] = test system: UMSCC1; test: Antitumor activity against human UM-SCC-1 cells xenografted in nu/nu mouse assessed as reduction in tumor measured on 22nd to 36th day of measurable tumors at 8 mg/kg dosed every other day relative to control; format: functional, organism-based
[21] = test system: UMSCC1; test: Growth inhibition of human UM-SCC-1 cells assessed as decrease in cell number at 0.01 uM incubated for 96 hrs in presence of 1 uM OGF by MTT assay relative to control; format: functional
[22] = test system: UMSCC1; test: Antitumor activity against human UM-SCC-1 cells xenografted in nu/nu mouse assessed as reduction in tumor at 8 mg/kg dosed every other day and co-treated with 10 mg/kg/day OGF measured on 22nd to 36th day of measurable tumors relative to control; format: functional, organism-based
[23] = test system: UMSCC1; test: Antitumor activity against human UM-SCC-1 cells xenografted in nu/nu mouse assessed as time duration for delay in visible tumor development at 8 mg/kg dosed every other day and co-treated with 10 mg/kg/day OGF relative to control; format: functional
[24] = test system: UMSCC1; test: Growth inhibition of human UM-SCC-1 cells assessed as decrease in cell number at 0.01 uM in presence of 1 uM OGF incubated for 96 hrs by MTS assay relative to control; format: functional
[25] = test system: UMSCC1; test: Antitumor activity against human UM-SCC-1 cells xenografted in nu/nu mouse assessed as reduction in tumor at 8 mg/kg dosed every other day and co-treated with at 10 mg/kg/day OGF measured on 16th to 20th day of measurable tumors relative to control; format: functional, organism-based
[26] = test system: UMSCC1; test: Growth inhibition of human UM-SCC-1 cells assessed as decrease in cell number at 0.01 uM incubated for 72 hrs in presence of 1 uM OGF by MTT assay relative to control; format: functional
[27] = test system: UMSCC1; test: Growth inhibition of human UM-SCC-1 cells assessed as decrease in cell number at 0.01 uM incubated for 48 hrs followed by compound wash out by 50% replacement of media and measured after 48 hrs by MTS assay relative to control; format: functional, cell-based
[28] = Toxicity in mouse xenografted with human UM-SCC-1 cells assessed as effect on large intestine/cecum/small bowel at 8 mg/kg dosed every other day by histological analysis; format: organism-based; details: in vivo
[29] = test system: UMSCC1; test: Antitumor activity against human UM-SCC-1 cells xenografted in nu/nu mouse assessed as reduction in tumor at 8 mg/kg dosed every other day and co-treated with 10 mg/kg/day OGF measured on 4th day of measurable tumors relative to control; format: functional; design: scale not given: the % may be the effect or the level left
[30] = test system: UMSCC1; test: Growth inhibition of human UM-SCC-1 cells assessed as decrease in cell number at 0.01 uM in presence of 1 uM OGF and 1 uM opioid antagonist naloxone incubated for 24 to 96 hrs by MTS assay relative to control; format: functional
[31] = test system: UMSCC1; test: Antitumor activity against human UM-SCC-1 cells xenografted in nu/nu mouse assessed as mouse mortality at 8 mg/kg dosed every other day measured on day 40 co-treated with 10 mg/kg/day OGF relative to control; format: functional, organism-based
[32] = test system: UMSCC1; test: Induction of apoptosis in human UM-SCC-1 cells assessed as increase in caspse-3 levels at 0.01 uM incubated for 6 days by flow cytometry; format: functional
[33] = test system: UMSCC1; test: Antitumor activity against human UM-SCC-1 cells xenografted in nu/nu mouse assessed as latency time for measurable (62.5 mm3) tumors at 8 mg/kg dosed every other day and co-treated with 10 mg/kg/day OGF (Rvb <=2 weeks); format: functional
[34] = test system: UMSCC1; test: Antitumor activity against human UM-SCC-1 cells xenografted in nu/nu mouse assessed as mouse mortality at 8 mg/kg dosed every other day measured on day 19 relative to control; format: functional, organism-based
[35] = test system: CAL-27; test: Growth inhibition of human CAL27 cells assessed as decrease in cell number at 0.0001 uM with drug and media changed daily incubated for 48 hrs by MTS assay relative to control; format: functional; details: CAL-27, 48 h, read-out: GI
[36] = test system: UMSCC1; test: Antitumor activity against human UM-SCC-1 cells xenografted in nu/nu mouse assessed as latency time for measurable (62.5 mm3) tumors at 8 mg/kg dosed every other day (Rvb <=2 weeks); format: functional
[37] = test system: UMSCC1; test: Antitumor activity against human UM-SCC-1 cells xenografted in nu/nu mouse assessed as reduction in tumor at 8 mg/kg dosed every other day and co-treated with 10 mg/kg/day OGF measured on 6th day of measurable tumors relative to control; format: functional; design: scale not given: the % may be the effect or the level left
[38] = test system: UMSCC1; test: Growth inhibition of human UM-SCC-1 cells assessed as decrease in cell number at 0.01 uM in presence of 1 uM OGF incubated for 72 hrs by MTS assay relative to control; format: functional
[39] = Toxicity in mouse xenografted with human UM-SCC-1 cells assessed as induction of stool hardening at 8 mg/kg dosed every other day by histological analysis; format: organism-based; details: in vivo
[40] = test system: UMSCC1; test: Induction of apoptosis in human UM-SCC-1 cells assessed as increase in caspse-3 levels at 0.01 uM in presence of 1 uM OGF incubated for 1 to 3 days by flow cytometry; format: functional
[41] = test system: UMSCC1; test: Inhibition of DNA synthesis in human UM-SCC-1 cells assessed as reduction in BrdU incorporation at 0.01 uM in presence of 1 uM OGF incubated for 72 hrs by fluorescence microscopy; format: functional
[42] = test system: UMSCC1; test: Induction of apoptosis in human UM-SCC-1 cells assessed as increase in caspse-3 levels at 0.01 uM incubated for 1 day by flow cytometry; format: functional, cell-based

CC(C)C[C@@H](NC(=O)[C@H](Cc1ccccc1)NC(=O)CNC(=O)[C@@H](C)NC(=O)[C@@H](N)Cc1ccc(O)cc1)C(=O)O
growth inhibition (GI) [1]: inactive
growth inhibition (GI) [2]: inactive

CC1(C)SSC(C)(C)[C@@H](NC(=O)[C@@H](N)Cc2ccc(O)cc2)C(=O)NCC(=O)N[C@@H](Cc2ccccc2)C(=O)N[C@H]1C(=O)O
growth inhibition (GI) [1]: inactive
growth inhibition (GI) [2]: inactive

CC[C@H](C)C(NC(=O)[C@@H](NC(=O)[C@H](C)NC(=O)[C@H](CC(N)=O)NC(=O)[C@H](CCCCN)NC(=O)[C@H](Cc1ccccc1)NC(=O)[C@H](CC(C)C)NC(=O)[C@@H](NC(=O)[C@@H](NC(=O)[C@H](CC(C)C)NC(=O)[C@@H]1CCCN1C(=O)[C@@H](NC(=O)[C@H](CCC(N)=O)NC(=O)[C@H](CO)NC(=O)[C@H](CCCCN)NC(=O)[C@H](CCC(=O)O)NC(=O)[C@H](CO)NC(=O)[C@@H](NC(=O)[C@H](CCSC)NC(=O)[C@H](Cc1ccccc1)NC(=O)CNC(=O)CNC(=O)[C@@H](N)Cc1ccc(O)cc1)[C@@H](C)O)C(C)O)C(C)C)[C@@H](C)O)[C@@H](C)CC)C(=O)N[C@@H](CCCCN)C(=O)N[C@@H](CC(N)=O)C(=O)N[C@@H](C)C(=O)N[C@@H](Cc1ccc(O)cc1)C(=O)N[C@@H](CCCCN)C(=O)N[C@@H](CCCCCN)C(=O)NCC(=O)N[C@@H](CCC(=O)O)C(=O)O (stereo partly specified)
growth inhibition (GI) [2]: inactive

C[C@@H](NC(=O)[C@@H](N)Cc1ccc(O)cc1)C(=O)NCC(=O)N(C)[C@@H](Cc1ccccc1)C(=O)NCCO
growth inhibition (GI) [1]: inactive
growth inhibition (GI) [2]: inactive

NC(=O)[C@H](Cc1ccccc1)NC(=O)[C@H](Cc1c[nH]c2ccccc12)NC(=O)[C@@H]1CCCN1C(=O)[C@@H](N)Cc1ccc(O)cc1
growth inhibition (GI) [1]: inactive
growth inhibition (GI) [2]: inactive

NC(=O)[C@H](Cc1ccccc1)NC(=O)[C@H](Cc1ccccc1)NC(=O)[C@@H]1CCCN1C(=O)[C@@H](N)Cc1ccc(O)cc1
growth inhibition (GI) [1]: inactive
growth inhibition (GI) [2]: inactive

O=c1[nH]cc(F)c(=O)[nH]1 [FLUOROURACIL]
growth inhibition (GI) [3]: 39.7%
Activity [4]: 13 - 30%
inhibition of growth at 1 µM [5]: 13.2%
growth inhibition (GI) [6]: 47.4%
inhibition of growth at 1 µM [7]: 22.2%
growth inhibition (GI) [8]: 21.5%
growth inhibition (GI) [9]: 35.7%
Activity [10]: 11 - 15%
inhibition of growth at 1 µM [11]: 23.6%

CC(=O)O[C@H]1C(=O)[C@@]2(C)[C@H]([C@H](OC(=O)c3ccccc3)[C@]3(O)C[C@H](OC(=O)[C@H](O)[C@@H](NC(=O)c4ccccc4)c4ccccc4)C(C)=C1C3(C)C)[C@]1(OC(C)=O)CO[C@@H]1C[C@@H]2O [PACLITAXEL]
fold change (FC) [12]: 13.9
Activity [13]: 29 - 33%
Activity [14]: Toxic
growth inhibition (GI) [15]: 61%
growth inhibition (GI) [16]: 68.4%
growth inhibition (GI) [17]: Active
growth inhibition (GI) [18]: 48%
growth inhibition (GI) [19]: 78.4%
Activity [20]: inactive
growth inhibition (GI) [21]: 36.3%
Activity [22]: Active
Time [23]: 4 days
growth inhibition (GI) [24]: 69%
Activity [25]: Active
growth inhibition (GI) [26]: 30.6%
growth inhibition (GI) [27]: Active
Activity [28]: Toxic
Activity [29]: 29%
growth inhibition (GI) [30]: 8.8 - 26%
Activity [31]: Active
fold change (FC) [32]: 2.7
Time [33]: 17 days
Activity [34]: inactive
inhibition of growth at 0.0001 µM [35]: 22 to 35%
Time [36]: <=12 day
Activity [37]: 29 - 33%
growth inhibition (GI) [38]: 63%
Activity [39]: Toxic
fold change (FC) [40]: 5.6
inhibition (INH) [41]: 16%
Activity [42]: inactive
